Reference: patent US8609669B2, “Potassium channel modulators” (AbbVie Inc., priority 2010, dated 2013)

Molecular target: T1, KCNQ 2/3 channels (HEK293 cells stably expressing human KCNQ2 and KCNQ3 subunits) (Homo sapiens, UniProt O43525+O43526)
T1 construct: expressed in transfected cells; host or cells: HEK293
Assay: KCNQ2/3 channel activation, thallium flux FLIPR assay (BTC-AM dye)
Type: cell-based
Conditions: for Emax: HEK293, maximum response relative to response of retigabine at 10 μM (set at 100%), read-out: Max. %; for EC50: HEK293 cells expressing human KCNQ2 and KCNQ3, FLIPR thallium flux
Experimental: The following example describes the assay that can be used to identify compounds that activate KCNQ 2/3 channels.
HEK293 cells stably expressing human KCNQ2 and KCNQ3 subunits were seeded in 96-well, black-walled, clear-bottomed, poly-D-lysine coated plates (BD Biosciences, Bedford, Mass.) at a density of 1×10^5 cells per well 24 hours before the assay. On the assay day, BTC-AM dye (Invitrogen, Carlsbad, Calif.) was loaded into the cells by replacing the cell culture medium with 100 μL/well of 4 μM dye in DPBS. Dye loading was allowed to proceed for 2 hours at room temperature and then cells were washed twice in 100 μL/well of assay buffer (in mM: 10 HEPES pH 7.3, 5 glucose, 140 Na-gluconate, 2.5 K-gluconate, 3.6 Ca-gluconate, 2 MgSO4, 0.1 Ouabain) to remove unloaded dye. Cells were incubated in 50 μL of assay buffer before loading onto a FLIPR system (Molecular Devices, Sunnyvale, Calif.). Various concentrations of compounds to be assayed were added to the cells in 50 μL of assay buffer and incubated for 4 minutes. The fluorescence signal was initiated by adding 100 μL of assay buffer containing 6 mM TlNO3 and 10 mM K2SO4. Fluors were excited using the 488-nm line of an argon laser and emission was filtered using a 540±30 nm bandpass filter. Fluorescent signals were recorded for 3 minutes. Responses over baseline values were plotted versus concentrations of test compounds to obtain an EC50 value. The maximum response for each test compound was determined relative to the response produced at 10 μM by retigabine. The maximum response of retigabine at 10 μM was set at 100%.

Emax [%] | EC50 [nM] | SMILES
139 | 100 to 500 | Cc1cnc2c(-c3cccc(F)c3)c(NC(=O)CC3CCCC3)nn2c1 [Example 83, 2-cyclopentyl-N-[3-(3-fluorophenyl)-6-methylpyrazolo[1,5-a]pyrimidin-2-yl]acetamide]
138 | < 100 | Cc1cc(C)n2nc(NC(=O)CC3CCCCC3)c(-c3cccc(F)c3)c2n1 [Example 86, 2-cyclohexyl-N-[3-(3-fluorophenyl)-5,7-dimethylpyrazolo[1,5-a]pyrimidin-2-yl]acetamide]
166 | < 100 | Cc1cc(C)n2nc(NC(=O)CC3CCCCC3)c(-c3ccc(F)c(C)c3)c2n1 [Example 34, 2-cyclohexyl-N-[3-(4-fluoro-3-methylphenyl)-5,7-dimethylpyrazolo[1,5-a]pyrimidin-2-yl]acetamide]
142 | 100 to 500 | CC(C)(C)c1c(NC(=O)Cc2ccc(F)cc2)nn2cccnc12 [Example 123, N-(3-tert-butylpyrazolo[1,5-a]pyrimidin-2-yl)-2-(4-fluorophenyl)acetamide]
162 | 100 to 500 | Cc1cnc2c(-c3ccc(F)c(C)c3)c(NC(=O)CSC3CCCC3)nn2c1 [Example 143, 2-(cyclopentylthio)-N-[3-(4-fluoro-3-methylphenyl)-6-methylpyrazolo[1,5-a]pyrimidin-2-yl]acetamide]
73 | 1000 to 10000 | Cc1cnc2c(-c3ccc(Cl)c(C)c3)c(NC(=O)CCc3ccccc3)nn2c1 [Example 44, N-[3-(4-chloro-3-methylphenyl)-6-methylpyrazolo[1,5-a]pyrimidin-2-yl]-3-phenylpropanamide]
156 | 1000 to 10000 | CC(C)(C)Cc1c(NC(=O)CCc2ccccc2)nn2cccnc12 [Example 10, N-[3-(2,2-dimethylpropyl)pyrazolo[1,5-a]pyrimidin-2-yl]-3-phenylpropanamide]
191 | 100 to 500 | Cc1cc(C)n2nc(NC(=O)CCc3ccccc3)c(CC(C)(C)C)c2n1 [Example 15, N-[3-(2,2-dimethylpropyl)-5,7-dimethylpyrazolo[1,5-a]pyrimidin-2-yl]-3-phenylpropanamide]
59 | > 10000 | CC(C)(C)CC(=O)Nc1nn2cccnc2c1/C=C/c1ccc(Cl)cc1 [Example 111, N-{3-[(E)-2-(4-chlorophenyl)vinyl]pyrazolo[1,5-a]pyrimidin-2-yl}-3,3-dimethylbutanamide]
177 | 1000 to 10000 | CC(C)(C)c1c(NC(=O)CC2CCC3CC23)nn2cccnc12 (stereo not drawn) [Example 175, 2-[(cis)-bicyclo[3.1.0]hex-2-yl]-N-(3-tert-butylpyrazolo[1,5-a]pyrimidin-2-yl)acetamide]
-1 | > 10000 | O=C(Cc1ccccn1)Nc1nn2cccnc2c1-c1ccc(Cl)cc1 [Example 100, N-[3-(4-chlorophenyl)pyrazolo[1,5-a]pyrimidin-2-yl]-2-(pyridin-2-yl)acetamide]
72.3 | > 10000 | O=C(Cc1cccnc1)Nc1nn2cccnc2c1-c1ccc(OC(F)(F)F)cc1 [Example 98, 2-(pyridin-3-yl)-N-{3-[4-(trifluoromethoxy)phenyl]pyrazolo[1,5-a]pyrimidin-2-yl}acetamide]
134 | 100 to 500 | CC(C)(C)c1c(NC(=O)CC2CCC3C2C3(Cl)Cl)nn2cccnc12 (stereo not drawn) [Example 169, N-(3-tert-butylpyrazolo[1,5-a]pyrimidin-2-yl)-2-[(cis)-6,6-dichlorobicyclo[3.1.0]hex-2-yl]acetamide]
127 | 500 to 1000 | Cc1cnc2c(-c3ccc(F)c(C)c3)c(NC(=O)CC(C)(C)c3ccccc3)nn2c1 [Example 149, N-[3-(4-fluoro-3-methylphenyl)-6-methylpyrazolo[1,5-a]pyrimidin-2-yl]-3-methyl-3-phenylbutanamide]
128 | 500 to 1000 | O=C(CC12CC3CC(CC(C3)C1)C2)Nc1nn2cccnc2c1-c1ccc(Cl)cc1 [Example 162, 2-(adamantan-1-yl)-N-[3-(4-chlorophenyl)pyrazolo[1,5-a]pyrimidin-2-yl]acetamide]
8 | > 10000 | COc1cc(CC(=O)Nc2nn3cccnc3c2-c2ccc(Cl)cc2)cc(OC)c1 [Example 109, N-[3-(4-chlorophenyl)pyrazolo[1,5-a]pyrimidin-2-yl]-2-(3,5-dimethoxyphenyl)acetamide]

Emax [%] | EC50 [nM] | SMILES
143 | 100 to 500 | O=C(CC1CC2CCC1C2)Nc1nn2cccnc2c1-c1ccc(Cl)cc1 (racemic) [Example 158, (±)-exo-2-bicyclo[2.2.1]hept-2-yl-N-[3-(4-chlorophenyl)pyrazolo[1,5-a]pyrimidin-2-yl]acetamide]
56 | 100 to 500 | Cc1ccnc2c(-c3cccc(C(F)(F)F)c3)c(NC(=O)CCC3CCCCC3)nn12 [Example 65, 3-cyclohexyl-N-{7-methyl-3-[3-(trifluoromethyl)phenyl]pyrazolo[1,5-a]pyrimidin-2-yl}propanamide]
138 | < 100 | CC(C)(C)c1c(NC(=O)C[C@@H]2CC[C@H]3C[C@@H]2C3(C)C)nn2cccnc12 [Example 171, N-(3-tert-butylpyrazolo[1,5-a]pyrimidin-2-yl)-2-[(1S,2S,5S)-6,6-dimethylbicyclo[3.1.1]hept-2-yl]acetamide]
50 | > 10000 | O=C(CCC1CCCC1)Nc1nn2cccnc2c1/C=C/c1ccc(C(F)(F)F)cc1 [Example 153, 3-cyclopentyl-N-(3-{(E)-2-[4-(trifluoromethyl)phenyl]vinyl}pyrazolo[1,5-a]pyrimidin-2-yl)propanamide]
163 | > 10000 | COc1cccc(CC(=O)Nc2nn3c(C)ccnc3c2CC(C)(C)C)c1 [Example 38, N-[3-(2,2-dimethylpropyl)-7-methylpyrazolo[1,5-a]pyrimidin-2-yl]-2-(3-methoxyphenyl)acetamide]
73 | 500 to 1000 | CC1(C)[C@H]2CC[C@@H](CC(=O)Nc3nn4cccnc4c3-c3ccc(OC(F)(F)F)cc3)[C@@H]1C2 [Example 4, 2-[(1S,2S,5S)-6,6-dimethylbicyclo[3.1.1]hept-2-yl]-N-{3-[4-(trifluoromethoxy)phenyl]pyrazolo[1,5-a]pyrimidin-2-yl}acetamide]
11 | > 10000 | Cc1cc(C)n2nc(NC(=O)COC3CCCC3)c(-c3ccc(Cl)c(C)c3)c2n1 [Example 134, N-[3-(4-chloro-3-methylphenyl)-5,7-dimethylpyrazolo[1,5-a]pyrimidin-2-yl]-2-(cyclopentyloxy)acetamide]
166 | < 100 | Cc1ccnc2c(CC(C)(C)C)c(NC(=O)CCC3CCCCC3)nn12 [Example 37, 3-cyclohexyl-N-[3-(2,2-dimethylpropyl)-7-methylpyrazolo[1,5-a]pyrimidin-2-yl]propanamide]
143 | 100 to 500 | O=C(CCC1CCCC1)Nc1nn2cccnc2c1-c1cccc(F)c1 [Example 135, 3-cyclopentyl-N-[3-(3-fluorophenyl)pyrazolo[1,5-a]pyrimidin-2-yl]propanamide]
133 | < 100 | Cc1cnc2c(Cc3ccc(F)cc3)c(NC(=O)CCC3CCCCC3)nn2c1 [Example 77, 3-cyclohexyl-N-[3-(4-fluorobenzyl)-6-methylpyrazolo[1,5-a]pyrimidin-2-yl]propanamide]
20 | > 10000 | CC(C)(C)c1c(NC(=O)CC2CCc3ccccc32)nn2cccnc12 (racemic) [Example 172, (±)-N-(3-tert-butylpyrazolo[1,5-a]pyrimidin-2-yl)-2-(2,3-dihydro-1H-inden-1-yl)acetamide]
167 | < 100 | Cc1cc(C)n2nc(NC(=O)CCC3CCCC3)c(-c3ccccc3)c2n1 [Example 95, 3-cyclopentyl-N-(5,7-dimethyl-3-phenylpyrazolo[1,5-a]pyrimidin-2-yl)propanamide]
142 | < 100 | CC(C)(C)c1c(NC(=O)CCC2CCCCC2)nn2cccnc12 [Example 132, N-(3-tert-butylpyrazolo[1,5-a]pyrimidin-2-yl)-3-cyclohexylpropanamide]
14 | > 10000 | CC(C)c1c(NC(=O)CCC2CC2)nn2cccnc12 [Example 118, 3-cyclopropyl-N-(3-isopropylpyrazolo[1,5-a]pyrimidin-2-yl)propanamide]
160 | > 10000 | COc1ccc(CC(=O)Nc2nn3c(C)ccnc3c2CC(C)(C)C)cc1 [Example 36, N-[3-(2,2-dimethylpropyl)-7-methylpyrazolo[1,5-a]pyrimidin-2-yl]-2-(4-methoxyphenyl)acetamide]
78 | 100 to 500 | Cc1ccn2nc(NC(=O)Cc3ccc(F)cc3)c(-c3ccc(OC(F)(F)F)cc3)c2n1 [Example 168, 2-(4-fluorophenyl)-N-{5-methyl-3-[4-(trifluoromethoxy)phenyl]pyrazolo[1,5-a]pyrimidin-2-yl}acetamide]
